In PMC6886798, “Expression of myeloid Src-family kinases is associated with poor prognosis in AML and influences Flt3-ITD kinase inhibitor acquired resistance” (PLoS ONE, 2019):
Like-named read-outs stand apart in the source and are kept apart here.

What was measured:
[1] = target: T1, Hck T338L (Homo sapiens, UniProt P08631, T333L); assay: Z'-LYTE in vitro kinase assay; assay type: biochemical
T1 construct: Recombinant near-full-length kinases, consisting of the SH2, SH3 and kinase domains plus the negative regulatory tail; made in house; host or cells: E. coli BL21Star (DE3), co-expressed with Csk and PTP1B

[2] = target: T2, Fgr T338F (Homo sapiens, UniProt P09769, T334F); assay: Z'-LYTE in vitro kinase assay; assay type: biochemical
T2 construct: Recombinant near-full-length kinases, consisting of the SH2, SH3 and kinase domains plus the negative regulatory tail; made in house; host or cells: E. coli BL21Star (DE3), co-expressed with Csk and PTP1B
Experimental: Assays were performed in quadruplicate in 384-well low volume, non-binding, black polystyrene microplates (Corning) according to the manufacturer’s instructions. Briefly, this assay measures phosphorylation of the Tyr2 peptide substrate which is tagged with coumarin and fluorescein on its N- and C-termini, respectively, to form a FRET pair. After the kinase reaction, a development step involves site-specific proteolytic cleavage of the unphosphorylated but not the phosphorylated peptide. […] Kinase reactions were run in 50 mM HEPES, pH 7.5, 10 mM MgCl2, 1 mM EGTA, and 0.01% BRIJ-35 (buffer supplied by the manufacturer). […] Following incubation for 1 h at ambient temperature, reactions were quenched by addition of the development protease, and coumarin and fluorescein fluorescence were measured 1 h later on a Molecular Devices SpectraMax M5 plate reader. […] For experiments with inhibitors, compounds were preincubated with kinase for 30 min prior to initiation of the reaction by the addition of ATP.

[3] = tested on: MOLM13 R3 (A-419259-resistant population); assay: CellTiter-Blue cell viability; assay type: cell-based, human
Experimental: (§1) Cell viability was assessed using the CellTiter-Blue reagent according to the manufacturer’s instructions (Promega). Fluorescence intensity, which correlates directly with viable cell number, was measured using a SpectraMax M5 microplate reader. Each experiment included three technical replicates per condition, and each experiment was repeated at least three times. […] Viability of each cell population was measured three times per week using the CellTiter-Blue assay.

[4] = tested on: MOLM14 R1 (A-419259-resistant population); assay: CellTiter-Blue cell viability; assay type: cell-based, human
Experimental: as §1

[5] = tested on: MOLM14 R2 (A-419259-resistant population); assay: CellTiter-Blue cell viability; assay type: cell-based, human
Experimental: as §1

[6] = tested on: MOLM14 R3 (A-419259-resistant population); assay: CellTiter-Blue cell viability; assay type: cell-based, human
Experimental: as §1

[7] = tested on: MV4-11 R2 (A-419259-resistant population); assay: CellTiter-Blue cell viability; assay type: cell-based, human
Experimental: as §1

[8] = tested on: MV4-11 R3 (A-419259-resistant population); assay: CellTiter-Blue cell viability; assay type: cell-based, human
Experimental: as §1

[9] = target: 468 kinases; assay: KINOMEscan scanMAX profile, overall selectivity; assay type: binding, human; settings: 1 μM; 468 kinase targets
[10] = target: T3, ACVR2A (Homo sapiens, UniProt P27037); assay: KINOMEscan; assay type: binding; settings: 1.0 µM
T3 construct: purchased Eurofins/DiscoverX KINOMEscan scanMAX
Experimental: (§2) Kinase retention to the immobilized ligand is then measured using quantitative real-time PCR for each kinase-specific DNA barcode.

[11] = target: T4, CDK8 (Homo sapiens, UniProt P49336); assay: KINOMEscan; assay type: binding; settings: 1.0 µM
T4 construct: purchased Eurofins/DiscoverX KINOMEscan scanMAX
Experimental: as §2

[12] = target: T5, CLK3 (Homo sapiens, UniProt P49761); assay: KINOMEscan; assay type: binding; settings: 1.0 µM
T5 construct: purchased Eurofins/DiscoverX KINOMEscan scanMAX
Experimental: as §2

[13] = target: T6, EPHA8 (Homo sapiens, UniProt P29322); assay: KINOMEscan; assay type: binding; settings: 1.0 µM
T6 construct: purchased Eurofins/DiscoverX KINOMEscan scanMAX
Experimental: as §2

[14] = target: T7, NDR2 (Homo sapiens, UniProt Q9Y2H1); assay: KINOMEscan; assay type: binding; settings: 1.0 µM
T7 construct: purchased Eurofins/DiscoverX KINOMEscan scanMAX
Experimental: as §2

[15] = target: T8, NEK7 (Homo sapiens, UniProt Q8TDX7); assay: KINOMEscan; assay type: binding; settings: 1.0 µM
T8 construct: purchased Eurofins/DiscoverX KINOMEscan scanMAX
Experimental: as §2

[16] = target: T9, PAK6 (Homo sapiens, UniProt Q9NQU5); assay: KINOMEscan; assay type: binding; settings: 1.0 µM
T9 construct: purchased Eurofins/DiscoverX KINOMEscan scanMAX
Experimental: as §2

[17] = target: T10, PCTK1 (Homo sapiens, UniProt Q00536); assay: KINOMEscan; assay type: binding; settings: 1.0 µM
T10 construct: purchased Eurofins/DiscoverX KINOMEscan scanMAX
Experimental: as §2

[18] = target: T11, PFCDPK1(P.falciparum) (Plasmodium falciparum, UniProt P62344); assay: KINOMEscan; assay type: binding; settings: 1.0 µM
T11 construct: purchased Eurofins/DiscoverX KINOMEscan scanMAX
Experimental: as §2

[19] = target: T12, PIK3CA(E545A) (Homo sapiens, UniProt P42336, E545A); assay: KINOMEscan; assay type: binding; settings: 1.0 µM
T12 construct: purchased Eurofins/DiscoverX KINOMEscan scanMAX
Experimental: as §2

[20] = target: T13, PIP5K2C (Homo sapiens, UniProt Q8TBX8); assay: KINOMEscan; assay type: binding; settings: 1.0 µM
T13 construct: purchased Eurofins/DiscoverX KINOMEscan scanMAX
Experimental: as §2

[21] = target: T14, PKN2 (Homo sapiens, UniProt Q16513); assay: KINOMEscan; assay type: binding; settings: 1.0 µM
T14 construct: purchased Eurofins/DiscoverX KINOMEscan scanMAX
Experimental: as §2

[22] = target: T15, PYK2 (Homo sapiens, UniProt Q14289); assay: KINOMEscan; assay type: binding; settings: 1.0 µM
T15 construct: purchased Eurofins/DiscoverX KINOMEscan scanMAX
Experimental: as §2

[23] = target: T16, RET(V804M) (Homo sapiens, UniProt P07949, V804M); assay: KINOMEscan; assay type: binding; settings: 1.0 µM
T16 construct: purchased Eurofins/DiscoverX KINOMEscan scanMAX
Experimental: as §2

[24] = target: T17, RPS6KA4(Kin.Dom.1-N-terminal) (Homo sapiens, UniProt O75676); assay: KINOMEscan; assay type: binding; settings: 1.0 µM
T17 construct: RPS6KA4(Kin.Dom.1-N-terminal); purchased Eurofins/DiscoverX KINOMEscan scanMAX
Experimental: as §2

[25] = target: T18, SIK2 (Homo sapiens, UniProt Q9H0K1); assay: KINOMEscan; assay type: binding; settings: 1.0 µM
T18 construct: purchased Eurofins/DiscoverX KINOMEscan scanMAX
Experimental: as §2

[26] = target: T19, SgK110 (Homo sapiens, UniProt P0C264); assay: KINOMEscan; assay type: binding; settings: 1.0 µM
T19 construct: purchased Eurofins/DiscoverX KINOMEscan scanMAX
Experimental: as §2

[27] = target: T20, TAOK2 (Homo sapiens, UniProt Q9UL54); assay: KINOMEscan; assay type: binding; settings: 1.0 µM
T20 construct: purchased Eurofins/DiscoverX KINOMEscan scanMAX
Experimental: as §2

[28] = target: T21, TNK1 (Homo sapiens, UniProt Q13470); assay: KINOMEscan; assay type: binding; settings: 1.0 µM
T21 construct: purchased Eurofins/DiscoverX KINOMEscan scanMAX
Experimental: as §2

[29] = target: T22, ULK1 (Homo sapiens, UniProt O75385); assay: KINOMEscan; assay type: binding; settings: 1.0 µM
T22 construct: DNA tag (qPCR barcode); purchased Eurofins/DiscoverX KINOMEscan scanMAX
Experimental: as §2

[30] = target: T23, VRK2 (Homo sapiens, UniProt Q86Y07); assay: KINOMEscan; assay type: binding; settings: 1.0 µM
T23 construct: DNA tag (qPCR barcode); purchased Eurofins/DiscoverX KINOMEscan scanMAX
Experimental: as §2

[31] = target: T24, WNK1 (Homo sapiens, UniProt Q9H4A3); assay: KINOMEscan; assay type: binding; settings: 1.0 µM
T24 construct: DNA tag (qPCR barcode); purchased Eurofins/DiscoverX KINOMEscan scanMAX
Experimental: as §2

[32] = tested on: EGFR(L747-T751del,Sins); assay: KINOMEscan; assay type: binding, human; settings: 1.0 µM
Experimental: as §2

[33] = tested on: FLT3(ITD,D835V); assay: KINOMEscan; assay type: binding, human; settings: 1.0 µM
Experimental: as §2

[34] = target: T25, HCK (Homo sapiens, UniProt P08631); assay: KINOMEscan; assay type: binding; settings: 1.0 µM
T25 construct: purchased Eurofins/DiscoverX KINOMEscan scanMAX

[35] = target: T26, LCK (Homo sapiens, UniProt P06239); assay: KINOMEscan; assay type: binding; settings: 1.0 µM
T26 construct: purchased Eurofins/DiscoverX KINOMEscan scanMAX

[36] = target: T27, PRP4 (Homo sapiens, UniProt Q13523); assay: KINOMEscan; assay type: binding; settings: 1.0 µM
T27 construct: purchased Eurofins/DiscoverX KINOMEscan scanMAX

[37] = read-out: A-419259 Sensitivity (IC50, nM) Initial, mean ± SE (n = 3)
[38] = read-out: A-419259 Sensitivity (IC50, nM) Post-holiday, after 4 weeks passage in the absence of inhibitor, mean ± SE (n = 3)

T1 sequence (P08631 78-526 T333L limits assumed): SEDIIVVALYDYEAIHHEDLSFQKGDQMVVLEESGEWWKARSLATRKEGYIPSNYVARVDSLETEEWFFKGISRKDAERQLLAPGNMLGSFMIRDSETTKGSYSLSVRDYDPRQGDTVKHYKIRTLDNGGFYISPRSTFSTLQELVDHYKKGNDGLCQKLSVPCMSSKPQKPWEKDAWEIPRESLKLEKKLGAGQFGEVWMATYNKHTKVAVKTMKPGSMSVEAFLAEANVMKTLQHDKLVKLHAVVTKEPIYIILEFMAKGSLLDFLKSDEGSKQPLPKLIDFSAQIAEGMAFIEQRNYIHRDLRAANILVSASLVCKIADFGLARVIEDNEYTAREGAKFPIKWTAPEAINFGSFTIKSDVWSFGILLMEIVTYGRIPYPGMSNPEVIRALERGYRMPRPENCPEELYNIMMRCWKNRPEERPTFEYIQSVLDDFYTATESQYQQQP
T3 sequence (P27037 20-513): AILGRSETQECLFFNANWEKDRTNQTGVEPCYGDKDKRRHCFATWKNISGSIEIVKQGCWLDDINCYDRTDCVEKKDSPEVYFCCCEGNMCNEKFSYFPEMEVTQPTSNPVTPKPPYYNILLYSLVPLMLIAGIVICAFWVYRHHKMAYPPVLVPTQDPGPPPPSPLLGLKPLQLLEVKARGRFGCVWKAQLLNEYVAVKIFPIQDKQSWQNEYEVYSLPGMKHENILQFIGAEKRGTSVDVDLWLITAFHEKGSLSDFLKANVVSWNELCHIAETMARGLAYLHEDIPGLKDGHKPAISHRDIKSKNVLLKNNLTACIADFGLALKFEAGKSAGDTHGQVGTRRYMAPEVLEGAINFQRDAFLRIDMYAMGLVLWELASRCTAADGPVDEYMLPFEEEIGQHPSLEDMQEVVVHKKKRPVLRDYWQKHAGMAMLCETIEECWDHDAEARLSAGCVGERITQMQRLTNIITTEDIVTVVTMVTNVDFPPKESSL
T8 sequence (Q8TDX7 whole entry): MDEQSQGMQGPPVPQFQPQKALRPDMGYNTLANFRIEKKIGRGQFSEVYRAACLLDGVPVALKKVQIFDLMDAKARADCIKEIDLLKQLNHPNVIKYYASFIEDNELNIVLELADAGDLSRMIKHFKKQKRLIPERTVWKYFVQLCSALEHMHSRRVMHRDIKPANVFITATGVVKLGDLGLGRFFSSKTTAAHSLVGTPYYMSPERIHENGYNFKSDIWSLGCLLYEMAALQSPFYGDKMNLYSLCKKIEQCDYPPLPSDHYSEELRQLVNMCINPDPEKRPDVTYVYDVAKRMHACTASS
T4 sequence (P49336 whole entry): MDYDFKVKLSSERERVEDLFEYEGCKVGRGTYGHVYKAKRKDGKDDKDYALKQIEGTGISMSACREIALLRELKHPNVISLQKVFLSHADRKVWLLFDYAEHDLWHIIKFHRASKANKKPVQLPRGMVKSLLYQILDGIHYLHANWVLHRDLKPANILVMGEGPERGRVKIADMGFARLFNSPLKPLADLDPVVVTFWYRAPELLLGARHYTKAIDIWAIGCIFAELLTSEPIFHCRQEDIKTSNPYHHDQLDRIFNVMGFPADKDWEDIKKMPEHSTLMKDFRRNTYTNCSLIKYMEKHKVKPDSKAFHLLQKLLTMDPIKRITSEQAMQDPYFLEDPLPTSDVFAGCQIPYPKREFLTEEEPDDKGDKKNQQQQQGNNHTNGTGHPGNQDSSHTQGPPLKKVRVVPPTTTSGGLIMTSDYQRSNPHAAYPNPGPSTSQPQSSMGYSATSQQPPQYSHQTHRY
T24 sequence (Q9H4A3 whole entry): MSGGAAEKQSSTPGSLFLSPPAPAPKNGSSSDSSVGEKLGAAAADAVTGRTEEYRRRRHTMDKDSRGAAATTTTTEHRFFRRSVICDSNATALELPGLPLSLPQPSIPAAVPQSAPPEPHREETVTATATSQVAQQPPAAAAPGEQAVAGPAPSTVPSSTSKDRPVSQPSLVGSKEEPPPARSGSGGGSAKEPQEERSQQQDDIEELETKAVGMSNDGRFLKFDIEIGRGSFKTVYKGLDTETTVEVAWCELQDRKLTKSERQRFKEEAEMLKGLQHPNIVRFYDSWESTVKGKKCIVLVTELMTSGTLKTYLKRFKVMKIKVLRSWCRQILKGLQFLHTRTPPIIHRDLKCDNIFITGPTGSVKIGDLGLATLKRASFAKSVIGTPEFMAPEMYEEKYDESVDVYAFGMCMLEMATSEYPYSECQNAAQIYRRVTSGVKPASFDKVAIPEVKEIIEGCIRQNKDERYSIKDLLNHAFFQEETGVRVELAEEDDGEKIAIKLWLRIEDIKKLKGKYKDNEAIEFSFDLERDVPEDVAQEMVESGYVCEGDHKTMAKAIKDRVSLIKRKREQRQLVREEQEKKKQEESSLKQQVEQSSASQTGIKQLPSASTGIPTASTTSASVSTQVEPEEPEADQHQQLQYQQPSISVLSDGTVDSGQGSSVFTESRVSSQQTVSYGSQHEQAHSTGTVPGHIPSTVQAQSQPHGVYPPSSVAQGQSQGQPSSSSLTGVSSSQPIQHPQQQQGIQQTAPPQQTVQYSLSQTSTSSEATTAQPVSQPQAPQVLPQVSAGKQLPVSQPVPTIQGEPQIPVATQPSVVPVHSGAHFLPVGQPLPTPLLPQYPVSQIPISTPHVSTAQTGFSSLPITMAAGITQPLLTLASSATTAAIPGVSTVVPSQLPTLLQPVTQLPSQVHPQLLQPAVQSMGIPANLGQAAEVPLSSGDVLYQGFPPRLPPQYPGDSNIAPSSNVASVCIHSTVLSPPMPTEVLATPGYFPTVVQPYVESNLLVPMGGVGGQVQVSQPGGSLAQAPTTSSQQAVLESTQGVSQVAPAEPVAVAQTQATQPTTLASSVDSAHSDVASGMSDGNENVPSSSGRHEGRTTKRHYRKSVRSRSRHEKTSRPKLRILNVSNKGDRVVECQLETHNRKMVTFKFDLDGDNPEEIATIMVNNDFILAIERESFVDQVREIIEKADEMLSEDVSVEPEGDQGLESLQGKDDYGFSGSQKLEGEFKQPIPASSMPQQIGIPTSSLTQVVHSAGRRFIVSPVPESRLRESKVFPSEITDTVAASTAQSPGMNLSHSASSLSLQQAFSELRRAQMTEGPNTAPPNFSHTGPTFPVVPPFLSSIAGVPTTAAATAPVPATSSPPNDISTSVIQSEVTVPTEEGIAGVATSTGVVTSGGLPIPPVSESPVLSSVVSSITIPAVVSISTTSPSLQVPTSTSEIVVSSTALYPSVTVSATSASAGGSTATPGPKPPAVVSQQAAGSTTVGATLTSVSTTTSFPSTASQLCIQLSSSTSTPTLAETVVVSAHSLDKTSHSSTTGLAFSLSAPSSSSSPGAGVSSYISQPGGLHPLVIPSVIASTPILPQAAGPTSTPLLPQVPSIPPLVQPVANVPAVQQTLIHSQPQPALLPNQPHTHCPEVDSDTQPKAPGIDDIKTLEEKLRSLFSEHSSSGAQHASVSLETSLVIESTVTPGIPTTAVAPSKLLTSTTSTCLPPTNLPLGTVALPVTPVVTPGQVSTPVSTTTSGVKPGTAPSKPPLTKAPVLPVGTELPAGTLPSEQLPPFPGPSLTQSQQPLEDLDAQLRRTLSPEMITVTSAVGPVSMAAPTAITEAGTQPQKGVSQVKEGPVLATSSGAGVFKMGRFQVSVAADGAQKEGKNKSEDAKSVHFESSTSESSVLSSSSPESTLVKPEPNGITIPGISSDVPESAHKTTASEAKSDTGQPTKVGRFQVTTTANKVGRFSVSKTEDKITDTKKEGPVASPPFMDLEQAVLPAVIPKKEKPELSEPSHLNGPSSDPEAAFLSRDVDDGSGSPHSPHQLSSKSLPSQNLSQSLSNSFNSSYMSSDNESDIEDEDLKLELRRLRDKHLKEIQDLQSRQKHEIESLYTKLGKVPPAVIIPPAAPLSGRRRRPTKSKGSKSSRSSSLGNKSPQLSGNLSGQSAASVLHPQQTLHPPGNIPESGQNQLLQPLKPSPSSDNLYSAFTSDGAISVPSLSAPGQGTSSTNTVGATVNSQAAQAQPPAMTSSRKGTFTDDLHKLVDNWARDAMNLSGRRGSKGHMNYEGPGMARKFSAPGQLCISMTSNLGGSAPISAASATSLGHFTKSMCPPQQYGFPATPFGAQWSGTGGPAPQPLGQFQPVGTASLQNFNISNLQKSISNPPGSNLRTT
T9 sequence (Q9NQU5 whole entry): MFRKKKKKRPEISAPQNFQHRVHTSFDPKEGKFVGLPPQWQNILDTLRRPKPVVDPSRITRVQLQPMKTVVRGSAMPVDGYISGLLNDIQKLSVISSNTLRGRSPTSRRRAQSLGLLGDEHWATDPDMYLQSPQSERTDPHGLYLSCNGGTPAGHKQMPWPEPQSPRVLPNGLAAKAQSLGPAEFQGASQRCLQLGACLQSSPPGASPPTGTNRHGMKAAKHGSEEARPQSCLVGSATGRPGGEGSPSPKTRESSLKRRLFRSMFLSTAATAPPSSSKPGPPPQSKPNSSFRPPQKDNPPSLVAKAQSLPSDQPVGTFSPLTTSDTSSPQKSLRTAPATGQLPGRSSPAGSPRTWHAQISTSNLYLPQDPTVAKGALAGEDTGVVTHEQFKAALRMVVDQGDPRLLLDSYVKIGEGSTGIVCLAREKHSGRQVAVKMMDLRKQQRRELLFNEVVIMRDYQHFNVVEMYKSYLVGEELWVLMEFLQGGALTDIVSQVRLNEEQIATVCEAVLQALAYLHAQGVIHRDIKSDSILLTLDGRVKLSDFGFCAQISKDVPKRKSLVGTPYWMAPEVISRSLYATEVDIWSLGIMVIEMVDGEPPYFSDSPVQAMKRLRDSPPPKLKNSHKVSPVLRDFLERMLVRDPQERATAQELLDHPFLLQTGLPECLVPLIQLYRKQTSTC

In the case of `CN1CCN(C2CCC(n3cc(-c4ccc(Oc5ccccc5)cc4)c4c(N)ncnc43)CC2)CC1` (centres unmarked) [A-419259], the “effect of substitution on kinase sensitivity to A-419259” value ([1]; Hck gatekeeper threonine to leucine, vs wild-type) is reported as “without an effect”, the IC50 ([1]; read-out: A-419259 IC50, Fig 5B, Hck T338L, ATP at Km, mean ± SE, three independent determinations) is reported as 41 ± 1 nM and the “resistance to A-419259” value ([2]; Fgr gatekeeper phenylalanine substitution, vs wild-type) is reported as ~5 fold. The IC50 ([2]; read-out: A-419259 IC50, Fig 5B, Fgr T338F, ATP at Km, mean ± SE, three independent determinations) was 282.9 ± 1.1 nM, the IC50 [3, 37] was 473 ± 53.9 nM and the IC50 [3, 38] was 436 ± 107 nM. The IC50 [4, 37] was 187 ± 20.8 nM, the IC50 [4, 38] was 283 ± 84.2 nM and the IC50 [5, 37] was 193 ± 51.4 nM. It also gave an IC50 [5, 38] of 326 ± 38.4 nM, an IC50 [6, 37] of 213 ± 73.7 nM and an IC50 [6, 38] of 178 ± 46.1 nM. The IC50 [7, 37] was 410 ± 136 nM, the IC50 [7, 38] was 597 ± 76.3 nM and the IC50 [8, 37] was 125 ± 7.3 nM. For the same molecule, the IC50 [8, 38] was 91.6 ± 15.6 nM, the kinase interactions [9] was 19 and the “% Control” value [10] was 100%. The “% Control” value [11] was 28%, the “% Control” value [12] was 100% and the “% Control” value [13] was 72%. The “% Control” value [14] was 80%, the “% Control” value [15] was 91% and the “% Control” value [16] was 84%. The “% Control” value [17] was 99%, the “% Control” value [18] was 0% and the “% Control” value [19] was 100%. The “% Control” value [20] was 95%, the “% Control” value [21] was 100% and the “% Control” value [22] was 88%. The “% Control” value [23] was 21%, the “% Control” value [24] was 66% and the “% Control” value [25] was 19%. The “% Control” value [26] was 100%, the “% Control” value [27] was 85% and the “% Control” value [28] was 0%. The “% Control” value [29] was 99%, the “% Control” value [30] was 39% and the “% Control” value [31] was 73%. For the same molecule, the “% Control” value [32] was 16%, the “% Control” value [33] was 30% and the “% Control” value [34] was 1.9%. For the same molecule, the “% Control” value [35] was 2.3% and the “% Control” value [36] was 98%.
